From patent US20070203114A1, “7,8,9,10-Tetrahydro-Imidazo [2,1-A] Isochinolines” (priority 2004, published 2007)

system: pentagastrin-stimulated acid secretion of the perfused rat stomach; test: Secretion-inhibiting action on the perfused rat stomach (pentagastrin-stimulated acid secretion); type: in vivo; settings: anesthetized CD rat, female; dose 3 μmol/kg i.d. (intraduodenal); pentagastrin 1 μg/kg i.v. continuous infusion
Excerpt: Testing of the Secretion-Inhibiting Action on the Perfused Rat Stomach
In Table A which follows, the influence of the compounds according to the invention on the pentagastrin-stimulated acid secretion of the perfused rat stomach after intraduodenal administration in vivo is shown.
The abdomen anesthetized rats (CD rat, female, 200-250 g; 1.5 g/kg i.m. urethane) was opened after tracheotomy by a median upper abdominal incision and a PVC catheter was fixed transorally in the esophagus and another via the pylorus such that the ends of the tubes just projected into the gastric lumen. The catheter leading from the pylorus led outward into the right abdominal wall through a side opening.
After thorough rinsing (about 50-100 ml), warm (37° C.) physiological NaCl solution was continuously passed through the stomach (0.5 ml/min, pH 6.8-6.9; Braun-Unita I). The pH (pH meter 632, glass electrode EA 147; φ=5 mm, Metrohm) and, by titration with a freshly prepared 0.01N NaOH solution to pH 7 (Dosimat 665 Metrohm), the secreted HCl were determined in the effluent in each case collected at an interval of 15 minutes.
The gastric secretion was stimulated by continuous infusion of 1 μg/kg (=1.65 ml/h) of i.v. pentagastrin (left femoral vein) about 30 min after the end of the operation (i.e. after determination of 2 preliminary fractions). The substances to be tested were administered intraduodenally in a 2.5 ml/kg liquid volume 60 min after the start of the continuous pentagastrin infusion.
The body temperature of the animals was kept at a constant 37.8-38° C. by infrared irradiation and heat pads (automatic, stepless control by means of a rectal temperature sensor).

| Structure (SMILES) | Inhibition of acid secretion |
| --- | --- |
| Cc1nc2c3c(c(C(=O)N(C)C)cn2c1C)CCC(c1ccccc1)C3 (stereo not shown) [Example 3, 2,3-Dimethyl-9-phenyl-7,8,9,10-tetrahydro-imidazo[2,1-a]isoquinoline-6-carboxylic acid dimethylamide] | >40% |
| Cc1nc2c3c(c(C(=O)N4CCOCC4)cn2c1C)CCC(c1ccccc1)C3 (stereo not shown) [Example 7, (2,3-Dimethyl-9-phenyl-7,8,9,10-tetrahydro-imidazo[2,1-a]isoquinolin-6-yl)-morpholin-4-yl-methanone] | >40% |
| COCc1cn2c(C)c(C)nc2c2c1CCC(c1ccccc1)C2 (stereo not shown) [Example 11, 6-Methoxymethyl-2,3-dimethyl-9-phenyl-7,8,9,10-tetrahydro-imidazo[2,1]isoquinoline] | >40% |
| CNC(=O)c1cn2c(C)c(C)nc2c2c1CCC(c1ccccc1)C2 (stereo not shown) [Example 8, 2,3-Dimethyl-9-phenyl-7,8,9,10-tetrahydro-imidazo[2,1-a]isoquinoline-6-carboxylic acid methylamide] | >40% |
| Cc1nc2c3c(c(C(=O)N4CCCC4)cn2c1C)CCC(c1ccccc1)C3 (stereo not shown) [Example 4, (2,3-Dimethyl-9-phenyl-7,8,9,10-tetrahydro-imidazo[2,1-a]isoquinolin-6-yl)-pyrrolidin-1-yl-methanone] | >40% |
| COCCNC(=O)c1cn2c(C)c(C)nc2c2c1CCC(c1ccccc1)C2 (stereo not shown) [Example 6, 2,3-Dimethyl-9-phenyl-7,8,9,10-tetrahydro-imidazo[2,1-a]isoquinoline-6-carboxylic acid (2-methoxy-ethyl)-amide] | >40% |

system: not given; test: not given; settings: not given

| Structure (SMILES) | melting point |
| --- | --- |
| CNC(=O)c1cn2c(C)c(C)nc2c2c1CCC(c1ccccc1)C2 (stereo not shown) [Example 8, 2,3-Dimethyl-9-phenyl-7,8,9,10-tetrahydro-imidazo[2,1-a]isoquinoline-6-carboxylic acid methylamide] | 266 to 268 °C |
| CCOC(=O)c1cn2c(C)c(C)nc2c2c1CCC(c1ccccc1)C2 (stereo not shown) [Example 1, 2,3-Dimethyl-9-phenyl-7,8,9,10-tetrahydro-imidazo[2,1-a]isoquinoline-6-carboxylic acid ethyl ester] | 165 to 167 °C |
| Cc1nc2c3c(c(C(=O)O)cn2c1C)CCC(c1ccccc1)C3 (stereo not shown) [Example 2, 2,3-Dimethyl-9-phenyl-7,8,9,10-tetrahydro-imidazo[2,1-a]isoquinoline-6-carboxylic acid] | 343 to 345 °C (dec.) |
| Cc1nc2c3c(c(CO)cn2c1C)CCC(c1ccccc1)C3 (stereo not shown) [Example 10, (2,3-Dimethyl-9-phenyl-7,8,9,10-tetrahydro-imidazo[2,1-a]isoquinolin-6-yl)-methanol] | 290 to 292 °C |
